Experimental data published in patent US9302991B2, “Arylamide derivatives as TTX-S blockers” (RaQualia Pharma Inc., priority 2010, dated 2016).

Legend:
[1] = biological target: T1, human Nav1.7 channels (Homo sapiens, UniProt Q15858); test: FRET assay, human Nav1.7 (EFS on FDSS); type: cell-based; details: CHO cells expressing human Nav1.7, read-out: IC50 against Nav1.7
T1 construct: expressed in transfected cells; host or cells: CHO
Outline: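 CHO cells stably expressing the channel, loaded with CC2-DMPE (10 µM) then DiSBAC2(3) (15 µM) plus VABSC-1, in HEPES-buffered saline pH 7.4 at room temperature. Electrical field stimulation on FDSS; FRET ratio at 440 nm fitted for IC50.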

[2] = biological target: T2, human Nav1.3 channels (Homo sapiens, UniProt Q9NY46); test: FRET assay, human Nav1.3 (EFS on FDSS); type: cell-based; details: HEK293 cells expressing human Nav1.3, read-out: IC50 against Nav1.3
T2 construct: expressed in transfected cells; host or cells: HEK293
Outline: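 HEK293 cells expressing the channel, loaded with 10 microM CC2-DMPE then 15 microM DiSBAC2(3) plus 0.555 mM VABSC-1 in pH 7.4 HEPES buffer at room temperature. Membrane potential changes evoked by electrical field stimulation after compound addition; IC50 from 440 nm-normalized FRET ratios.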

T2 sequence (Q9NY46 whole entry): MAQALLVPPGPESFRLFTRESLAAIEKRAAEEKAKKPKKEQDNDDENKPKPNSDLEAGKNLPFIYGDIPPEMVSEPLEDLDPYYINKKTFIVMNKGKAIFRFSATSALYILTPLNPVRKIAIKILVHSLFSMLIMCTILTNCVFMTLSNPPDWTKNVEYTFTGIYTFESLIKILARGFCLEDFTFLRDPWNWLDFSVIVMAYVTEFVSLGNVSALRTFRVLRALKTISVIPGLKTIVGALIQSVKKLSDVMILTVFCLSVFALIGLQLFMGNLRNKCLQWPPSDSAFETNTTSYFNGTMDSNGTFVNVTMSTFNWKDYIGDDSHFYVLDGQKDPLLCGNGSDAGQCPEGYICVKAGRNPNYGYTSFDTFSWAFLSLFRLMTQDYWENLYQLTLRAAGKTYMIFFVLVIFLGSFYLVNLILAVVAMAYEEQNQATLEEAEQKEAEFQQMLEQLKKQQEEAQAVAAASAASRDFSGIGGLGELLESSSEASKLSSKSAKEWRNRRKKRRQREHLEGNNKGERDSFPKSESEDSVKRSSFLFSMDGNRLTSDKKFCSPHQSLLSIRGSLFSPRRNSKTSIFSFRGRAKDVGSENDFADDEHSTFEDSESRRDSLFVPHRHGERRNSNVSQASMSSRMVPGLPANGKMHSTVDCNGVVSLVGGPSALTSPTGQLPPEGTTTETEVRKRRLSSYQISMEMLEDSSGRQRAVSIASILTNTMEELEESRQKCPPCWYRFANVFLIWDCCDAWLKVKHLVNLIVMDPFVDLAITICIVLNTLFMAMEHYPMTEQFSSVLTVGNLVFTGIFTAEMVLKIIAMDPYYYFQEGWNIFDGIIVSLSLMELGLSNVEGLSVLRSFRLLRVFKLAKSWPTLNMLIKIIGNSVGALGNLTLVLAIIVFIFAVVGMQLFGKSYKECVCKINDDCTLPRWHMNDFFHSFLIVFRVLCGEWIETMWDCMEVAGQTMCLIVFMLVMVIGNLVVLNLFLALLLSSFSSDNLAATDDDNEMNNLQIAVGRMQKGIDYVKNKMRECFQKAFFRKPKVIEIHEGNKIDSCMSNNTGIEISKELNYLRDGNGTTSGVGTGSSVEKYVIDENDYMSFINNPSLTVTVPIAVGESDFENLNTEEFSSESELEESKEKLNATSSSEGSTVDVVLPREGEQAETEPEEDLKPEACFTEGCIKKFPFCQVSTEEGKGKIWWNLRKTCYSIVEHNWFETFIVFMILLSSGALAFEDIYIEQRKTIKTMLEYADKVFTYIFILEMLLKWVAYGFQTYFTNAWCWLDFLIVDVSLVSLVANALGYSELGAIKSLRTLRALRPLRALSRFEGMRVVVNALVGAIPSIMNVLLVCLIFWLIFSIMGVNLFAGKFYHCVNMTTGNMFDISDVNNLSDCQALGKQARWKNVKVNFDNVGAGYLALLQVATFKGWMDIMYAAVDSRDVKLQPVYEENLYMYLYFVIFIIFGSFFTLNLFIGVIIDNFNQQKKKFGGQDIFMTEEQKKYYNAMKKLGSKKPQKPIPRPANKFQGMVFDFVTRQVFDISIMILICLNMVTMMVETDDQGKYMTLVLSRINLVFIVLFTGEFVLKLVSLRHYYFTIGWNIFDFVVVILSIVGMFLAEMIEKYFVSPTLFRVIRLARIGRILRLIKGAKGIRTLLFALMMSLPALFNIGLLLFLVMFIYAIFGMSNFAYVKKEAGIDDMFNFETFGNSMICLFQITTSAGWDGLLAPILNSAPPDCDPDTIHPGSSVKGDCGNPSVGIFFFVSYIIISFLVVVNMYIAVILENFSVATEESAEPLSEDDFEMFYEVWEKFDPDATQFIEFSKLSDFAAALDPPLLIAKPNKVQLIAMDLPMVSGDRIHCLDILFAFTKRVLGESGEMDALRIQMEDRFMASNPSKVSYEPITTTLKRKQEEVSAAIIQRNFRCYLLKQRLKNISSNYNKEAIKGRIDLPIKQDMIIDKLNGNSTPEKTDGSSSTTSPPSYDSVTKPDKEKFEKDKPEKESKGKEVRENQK
T1 sequence (Q15858 whole entry): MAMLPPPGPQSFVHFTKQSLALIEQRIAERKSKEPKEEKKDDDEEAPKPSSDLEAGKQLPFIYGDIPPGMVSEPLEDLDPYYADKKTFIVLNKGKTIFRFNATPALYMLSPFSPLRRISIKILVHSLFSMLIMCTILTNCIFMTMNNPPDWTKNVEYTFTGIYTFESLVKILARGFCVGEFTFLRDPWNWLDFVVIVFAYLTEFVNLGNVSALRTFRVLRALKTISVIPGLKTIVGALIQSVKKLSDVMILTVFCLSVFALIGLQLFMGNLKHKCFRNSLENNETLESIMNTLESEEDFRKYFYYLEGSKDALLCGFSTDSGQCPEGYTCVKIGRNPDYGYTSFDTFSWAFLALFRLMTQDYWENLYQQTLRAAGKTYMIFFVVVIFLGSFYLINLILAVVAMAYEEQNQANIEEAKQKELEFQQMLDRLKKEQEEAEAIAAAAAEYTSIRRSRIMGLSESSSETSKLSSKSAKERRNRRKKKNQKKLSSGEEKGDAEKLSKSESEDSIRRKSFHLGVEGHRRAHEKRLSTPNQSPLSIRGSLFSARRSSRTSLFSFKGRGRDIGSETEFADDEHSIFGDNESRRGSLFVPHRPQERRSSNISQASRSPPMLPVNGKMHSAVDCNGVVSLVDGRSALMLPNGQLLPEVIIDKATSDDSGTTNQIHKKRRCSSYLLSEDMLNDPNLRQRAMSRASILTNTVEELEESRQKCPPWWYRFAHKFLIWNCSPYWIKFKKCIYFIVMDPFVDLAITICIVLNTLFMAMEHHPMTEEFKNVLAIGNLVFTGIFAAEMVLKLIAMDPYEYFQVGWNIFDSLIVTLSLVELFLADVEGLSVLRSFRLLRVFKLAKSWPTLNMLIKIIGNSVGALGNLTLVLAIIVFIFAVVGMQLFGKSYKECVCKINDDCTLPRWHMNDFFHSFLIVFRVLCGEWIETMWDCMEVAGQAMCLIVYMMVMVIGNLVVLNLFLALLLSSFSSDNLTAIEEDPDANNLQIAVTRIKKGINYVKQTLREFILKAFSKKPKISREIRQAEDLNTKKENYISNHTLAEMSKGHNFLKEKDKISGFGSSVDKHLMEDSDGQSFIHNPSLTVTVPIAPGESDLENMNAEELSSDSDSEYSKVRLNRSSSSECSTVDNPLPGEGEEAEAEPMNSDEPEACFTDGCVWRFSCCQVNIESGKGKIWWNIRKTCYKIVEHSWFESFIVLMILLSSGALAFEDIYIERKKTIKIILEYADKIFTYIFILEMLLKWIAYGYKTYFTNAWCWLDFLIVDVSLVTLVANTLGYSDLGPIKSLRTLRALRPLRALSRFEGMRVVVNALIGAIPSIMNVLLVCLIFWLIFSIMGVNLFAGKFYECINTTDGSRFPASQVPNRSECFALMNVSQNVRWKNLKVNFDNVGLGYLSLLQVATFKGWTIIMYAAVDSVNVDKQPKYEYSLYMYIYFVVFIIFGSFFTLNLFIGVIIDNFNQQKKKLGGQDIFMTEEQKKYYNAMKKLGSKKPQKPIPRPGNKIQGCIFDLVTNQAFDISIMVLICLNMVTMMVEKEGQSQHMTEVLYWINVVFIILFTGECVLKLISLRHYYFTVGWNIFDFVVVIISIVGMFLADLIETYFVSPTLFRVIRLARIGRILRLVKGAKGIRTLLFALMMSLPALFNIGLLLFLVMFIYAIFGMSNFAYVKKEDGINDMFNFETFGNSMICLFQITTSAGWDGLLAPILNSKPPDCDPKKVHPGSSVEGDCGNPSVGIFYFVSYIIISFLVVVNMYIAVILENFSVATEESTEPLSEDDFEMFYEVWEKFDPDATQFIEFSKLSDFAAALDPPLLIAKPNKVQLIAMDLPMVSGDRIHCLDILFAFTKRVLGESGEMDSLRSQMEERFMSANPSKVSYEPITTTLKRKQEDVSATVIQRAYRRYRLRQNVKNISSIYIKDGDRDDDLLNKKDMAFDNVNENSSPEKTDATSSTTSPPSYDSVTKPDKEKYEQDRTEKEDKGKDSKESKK

IC50 [1]	IC50 [2]	Structure (SMILES)
< 1 µM	< 1 µM	Cc1cc(C(=O)NC(C)c2cnc(OCC(F)(F)F)c(C)c2)nc(NC(=O)C(C)C)n1 (single isomer, unassigned) [Example 229, 2-isobutyramido-6-methyl-N-(1-(5-methyl-6-(2,2,2-trifluoroethoxy)pyridin-3-yl)ethyl)pyrimidine-4-carboxamide]
< 1 µM	< 1 µM	COc1nc(OCC(F)(F)F)ccc1CNC(=O)c1ccnc(NC(=O)C(C)C)c1 [Example 171, 2-isobutyramido-N-((2-methoxy-6-(2,2,2-trifluoroethoxy)pyridin-3-yl)methyl)isonicotinamide]
< 1 µM	< 1 µM	CCC(=O)Nc1cc(C(=O)NCc2cccc(OC(F)(F)F)c2)cc(C)n1 [Example 526, 2-methyl-6-propionamido-N-(3-(trifluoromethoxy)benzyl)isonicotinamide]
< 1 µM	< 1 µM	Cc1cc(C(=O)NCc2ccc(OCC(F)(F)F)c(C)c2)nc(NC(=O)C2CC2)n1 [Example 780, 2-(cyclopropanecarboxamido)-6-methyl-N-(3-methyl-4-(2,2,2-trifluoroethoxy)benzyl)pyrimidine-4-carboxamide]
< 1 µM	< 1 µM	CCC(=O)Nc1nccc(C(=O)NC(C)c2cnc(OCC(F)(F)F)c(C)c2)n1 (single isomer, unassigned) [Example 223, N-(1-(5-methyl-6-(2,2,2-trifluoroethoxy)pyridin-3-yl)ethyl)-2-propionamidopyrimidine-4-carboxamide]
< 1 µM	< 1 µM	Cc1cc(CNC(=O)c2ccnc(NC(=O)C(C)C)c2)cnc1OCC(F)(F)C(F)F [Example 941, 2-isobutyramido-N-((5-methyl-6-(2,2,3,3-tetrafluoropropoxy)pyridin-3-yl)methyl)isonicotinamide]
< 1 µM	< 1 µM	Cc1cc(C(=O)NCc2ccc(OCC(F)(F)F)c(C)c2)cc(NC(=O)C(C)C)n1 [Example 794, 2-isobutyramido-6-methyl-N-(3-methyl-4-(2,2,2-trifluoroethoxy)benzyl)isonicotinamide]
< 1 µM	< 1 µM	CCC(=O)Nc1cc(C(=O)NC(C)c2cnc(OCC(F)(F)F)c(Cl)c2)ccn1 (single isomer, unassigned) [Example 69, N-(1-(5-chloro-6-(2,2,2-trifluoroethoxy)pyridin-3-yl)ethyl)-2-propionamidoisonicotinamide]
< 1 µM	< 1 µM	Cc1cc(CNC(=O)c2ccnc(NC(=O)C3CC3)c2)ccc1OCC(F)(F)F [Example 790, 2-(cyclopropanecarboxamido)-N-(3-methyl-4-(2,2,2-trifluoroethoxy)benzyl)isonicotinamide]
< 1 µM	< 1 µM	CC(=O)Nc1cc(C(=O)NCc2ccc(OCC(F)(F)F)c(C)c2)ccn1 [Example 788, 2-acetamido-N-(3-methyl-4-(2,2,2-trifluoroethoxy)benzyl)isonicotinamide]
< 1 µM	< 1 µM	CCC(=O)Nc1cc(C(=O)NCc2cccc(OC(F)(F)F)c2)ccn1 [Example 523, 2-propionamido-N-(3-(trifluoromethoxy)benzyl)isonicotinamide]
< 1 µM	< 1 µM	CCC(=O)Nc1cc(C(=O)NC(C)c2cnc(OCC(F)F)c(C)c2)cc(C)n1 (single isomer, unassigned) [Example 554, N-(1-(6-(2,2-difluoroethoxy)-5-methylpyridin-3-yl)ethyl)-2-methyl-6-propionamidoisonicotinamide]
< 1 µM	< 1 µM	CC(=O)Nc1cc(C(=O)NCc2cnc(OCC(F)(F)C(F)F)c(C)c2)cc(C)n1 [Example 944, 2-acetamido-6-methyl-N-((5-methyl-6-(2,2,3,3-tetrafluoropropoxy)pyridin-3-yl)methyl)isonicotinamide]
< 1 µM	< 1 µM	CC(C)C(=O)Nc1cc(C(=O)NCc2cccc(C(F)(F)F)c2)ccn1 [Example 533, 2-isobutyramido-N-(3-(trifluoromethyl)benzyl)isonicotinamide]
< 1 µM	< 1 µM	Cc1cc(C(=O)NC(C)c2ccc(OCC(F)(F)F)nc2)cc(NC(=O)C(C)C)n1 (single isomer, unassigned) [Example 62, 2-isobutyramido-6-methyl-N-(1-(6-(2,2,2-trifluoroethoxy)pyridin-3-yl)ethyl)isonicotinamide]
< 1 µM	< 1 µM	CCC(=O)Nc1nc(C)cc(C(=O)NCc2cnc(OCC(F)(F)F)c(C)c2)n1 [Example 364, 6-methyl-N-((5-methyl-6-(2,2,2-trifluoroethoxy)pyridin-3-yl)methyl)-2-propionamidopyrimidine-4-carboxamide]
< 1 µM	< 1 µM	CCC(=O)Nc1cc(C(=O)NC(C)c2cccc(OCC(F)(F)F)n2)cc(C)n1 (single isomer, unassigned) [Example 139, 2-methyl-6-propionamido-N-(1-(6-(2,2,2-trifluoroethoxy)pyridin-2-yl)ethyl)isonicotinamide]
< 1 µM	< 1 µM	CCC(=O)Nc1cc(C(=O)NC(C)c2cnc(OCC(F)(F)F)c(C)c2)cc(C)n1 (single isomer, unassigned) [Example 132, 2-methyl-N-(1-(5-methyl-6-(2,2,2-trifluoroethoxy)pyridin-3-yl)ethyl)-6-propionamidoisonicotinamide]
< 1 µM	< 1 µM	O=C(NCc1cnc(OCC(F)(F)F)c(Br)c1)c1ccnc(NC(=O)C2CC2)n1 [Example 898, N-((5-bromo-6-(2,2,2-trifluoroethoxy)pyridin-3-yl)methyl)-2-(cyclopropanecarboxamido)pyrimidine-4-carboxamide]
< 1 µM	< 1 µM	Cc1cc(CNC(=O)c2ccnc(NC(=O)C3CC3)c2)ccc1OC(F)(F)F [Example 806, 2-(cyclopropanecarboxamido)-N-(3-methyl-4-(trifluoromethoxy)benzyl)isonicotinamide]
< 1 µM	< 1 µM	CCC(=O)Nc1cc(C(=O)NCc2cc(C(F)(F)F)ccc2F)cc(C)n1 [Example 128, N-(2-fluoro-5-(trifluoromethyl)benzyl)-2-methyl-6-propionamidoisonicotinamide]
< 1 µM	< 1 µM	CCC(=O)Nc1cc(C(=O)NCc2cnc(OCC(F)(F)F)c(C)c2)ccn1 [Example 368, N-((5-methyl-6-(2,2,2-trifluoroethoxy)pyridin-3-yl)methyl)-2-propionamidoisonicotinamide]
< 1 µM	< 1 µM	Cc1cc(CNC(=O)c2ccnc(NC(=O)C(C)C)c2)ccc1OCC(F)(F)F [Example 791, 2-isobutyramido-N-(3-methyl-4-(2,2,2-trifluoroethoxy)benzyl)isonicotinamide]
< 1 µM	< 1 µM	CC(=O)Nc1cc(C(=O)NCc2ccc(OC(F)(F)F)c(C)c2)cc(C)n1 [Example 808, 2-acetamido-6-methyl-N-(3-methyl-4-(trifluoromethoxy)benzyl)isonicotinamide]
< 1 µM	< 1 µM	Cc1cc(C(=O)NC(C)c2cccc(OC(F)(F)F)c2)cc(NC(=O)C(C)C)n1 (single isomer, unassigned) [Example 499, 2-isobutyramido-6-methyl-N-(1-(3-(trifluoromethoxy)phenyl)ethyl)isonicotinamide]
